Where two headings read alike, the source gives them in different places.
Tests used:
HIV-1 integrase = HIV-1 integrase (Human immunodeficiency virus type 1 group M subtype B, UniProt P04585); assay: HIV-1 integrase inhibition assay (microtiter plate, immobilised substrate DNA, Dig-labelled target DNA, OD 405 nm); assay type: biochemical
Experimental: Substrate DNA and target DNA, which sequences were indicated below, were synthesized by Amersham Pharmacia Biotech and dissolved in KTE buffer (composition: 100 mM KCl, 1 mM EDTA, 10 mM Tris-HCl (pH 7.6)) at concentration of 2 pmol/μl and 5 pmol/μl, respectively. The DNA solutions were annealed with each complement by slowly cooling after heating.
Streptavidin, obtained from Vector Laboratories, was dissolved in 0.1 M carbonate buffer (composition: 90 mM Na2CO3, 10 mM NaHCO3) at concentration of 40 μg/ml. After coating each well of microtiter plates (obtained from NUNC) with 50 μl of the above solution at 4° C. overnight, each well was washed twice with PBS (composition: 13.7 mM NaCl, 0.27 mM KCl, 0.43 mM Na2HPO4, 0.14 mM KH2PO4) and blocked with 300 μl of 1% skim milk in PBS for 30 min. Additionally, each well was washed twice with PBS and added 50 μl of substrate DNA solution (2 pmol/μl). The microtiter plates were kept at room temperature for 30 min. Then, each well was washed twice with PBS and once with H2O.
Subsequently, in the each well prepared above were added 45 μl of the reaction buffer prepared from 12 μl of the buffer (composition: 150 mM MOPS (pH 7.2), 75 mM MnCl2, 50 mM 2-mercaptoethanol, 25% glycerol, 500 μg/ml bovine serum albumin-fraction V), 1 μl of target DNA (5 pmol/μl), and 32 μl of the distilled water. Additionally, 6 μl of either a test compound in DMSO or DMSO for positive control(PC) was mixed with the above reaction buffer, then 9 μl of an integrase solution (30 pmol) was added and mixed well. In the well of negative control (NC) was added 9 μl of the integrase dilution buffer (composition: 20 mM MOPS (pH7.2), 400 mM potassium glutamate, 1 mM EDTA, 0.1% NP-40, 20% glycerol, 1 mM DTT, 4M urea).
The microtiter plates were incubated at 30° C. for 1 hour. The reaction solution was removed and each well was washed twice with PBS. Subsequently, each well of the microtiter plates was filled with 100 μl of anti-digoxigenin antibody labeled with alkaline phosphatase (Sheep Fab fragment: obtained from Boehringer) and incubated at 30° C. for 1 hour. Then, each well was washed twice with 0.05% Tween20 in PBS and once with PBS. Next, 150 μl of the Alkaline phosphatase reaction buffer (composition: 10 mM p-Nitrophenylphosphate (obtained from Vector Laboratories), 5 mM MgCl2, 100 mM NaCl, 100 mM Tris-HCl (pH 9.5)) was added in each well. […] The optical density (OD) at 405 nm of each well was measured and the percent inhibition was determined by the following expression.
The percent inhibition (%)=100[1-{(C abs.−NC abs.)/(PC abs.−NC abs.)}]
When the percent inhibition (%) is X % at the concentration of x μg/ml and the percent inhibition (%) is Y % at the concentration of y μg/ml, one of which is more than 50% and the other is less than 50%, IC50 can be determined by the following expression.
IC50(μg/ml)=x-{(X-50)(x-y)/(X-Y)}
Compound No. in the Table 1 is the same as compound No. of the above example.

[1] = UV spectrum measurement with stepwise addition of Mg2+ solution (chelate formation); assay type: physicochemical; conditions: compound 0.05 mmol/l, Mg2+ 0 to 3.6 mol/l, 240 nm to 500 nm, cell length 1 cm
Experimental: Compounds C-1, D-2, D-5 and D-6 were employed to determine UV spectra with treating dropwise with metal solutions.
The UV spectrum measurement was conducted with the cell length of 1 cm at a wavelength of 240 nm to 500 nm. Each test solution was obtained by preparing Solutions A^1, A2, B and C as shown below, adding an indicated volume of Solution A^1 or A2 to 1 ml of Solution B, making the total, volume 10 ml with Solution C. The concentrations of Compounds C-1, D-2, D-5 and D-6 in test solutions here were all adjusted at 0.05 mmol/l, and the concentrations of Mg^2+ were as indicated in Table 5.
Solution A1: MgCl2 4 mol/l, MOPS 50 mmol/l, NaOH 23.6 mmol/l, Solvent: Water
Solution A2: MgCl2 1 mol/l, MOPS 50 mmol/l, NaOH 23.6 mmol/l, Solvent: Water
Solution B: Compound 1 0.5 mmol/l, Solvent: DMSO
Solution C: NaCl 3 mol/l, MOPS 50 mmol/l, 23.6 mmol/l, Solvent: Water
For the purpose of indicating the change in the UV spectrum as a result of the increase in the metal ion concentration, one figure contained each UV spectrum curve at various metal ion concentrations.

[2] = UV spectrum measurement with monovalent ions Na+ and K+; assay type: physicochemical

Row | SMILES | IC50 (HIV-1 integrase) | change in the UV spectrum curve as the metal ion concentration was increased [1] | change in the UV spectrum curve [2] | IC50 (HIV-1 integrase; concentration of the compound at percent inhibition 50%, MnCl2 buffer, 30° C., 1 hour)
1 | O=C(O)/C(O)=C/c1cc(CCc2ccccc2)ncn1 [Compound C-1] | 5.55 µM | 2-step change | almost no change | –
2 | O=C(O)C(O)=Cc1ccnc(CCc2ccccc2)c1 [Compound D-5] | – | 1-step change | – | >100 µg/mL
3 | OC(=Cc1cc(CCc2ccccc2)ncn1)c1ccccc1 [Compound D-6] | > 331 µM | 1-step change | – | –
